Test results reported in patent US20140243396A1, “METHOD OF TREATING MUCOEPIDERMOID CARCINOMA” (DANA-FARBER CANCER INSTITUTE, INC., priority 2011, published 2014).
pIC50: −log10 of the molar value.

Assays:
Type in all cases: cell-based
H292 and H3118 cells [1] = assay: MTS proliferation assay; details: Homo sapiens, NCI-H292, 120 h, MTS assay on day 5 of treatment, read-out: IC50, cell growth
Procedure: FIG. 6 illustrates PI3-kinase signaling contributes to MEC cell growth. A. Effects of PI3-kinase inhibitor LY-294002 or Compound A on MEC cell growth. […] The same blot was stripped and probed with anti-AKT or anti-V.-actin antibody. Image was cropped and auto-leveled by Photoshop. A representative of three independent experiments. (Right) MEC cell growth was measured by MTS assay on day 5 of LY-294002 or Compound A treatment. Points: mean, bars: SD (n=3). B. Effects of knock-down of PI3-kinase α or β on MEC cell growth. […] cell lysates were prepared on day 5 post-transduction. Image was cropped and auto-leveled by Photoshop. […] Cell numbers were counted by trypan blue exclusion on day 5 posttransduction. […] SD (n=3). **p<0.01, ***p<0.001 compared to control cells. C. […] Cell numbers were counted by trypan blue exclusion on day 5, Columns: mean, bars: SD (n=3). The Methods were described previously (Chen et al. […] On day 5 post infection, cells were counted by trypan blue exclusion. MTS proliferation assay (Promega, Madison, Wis.): 1-2×10^3 cells were treated with LY-294002, Compound A or DMSO in the concentration as indicated in FIG. 6A. MTS activities were measured on day 5. […] DNA amount was measured by flow cytometry analysis (BD FACScans). […] Cell viability was measured using the Annexin-V-FLUOS Staining Kit (Roche Diagnostics, Indianapolis, Ind.) by flow cytometry analysis (BD FACScans).

H292 and H3118 cells [2] = assay: Cell growth, cell count by trypan blue exclusion
Procedure: (§1) FIG. 2 illustrates inhibition of PDE4B by pharmacological inhibitor rolipram plus forskolin prevents cell growth, causes cell cycle arrest and induces apoptosis in fusion positive MEC cells. Rolipram (R), forskolin (FK), Rolipram plus forskolin (R+FK) or DMSO. Columns: mean, bars: SD (n>3), *p<0.05, **p<0.01, ***p<0.001, compared to HSY cell growth. B. 1×10^5 cells were treated with 50 μM R plus 20 μM FK or DMSO for 24 hours. C. 1×10^5 cells were treated with 50 μM rolipram plus 20 μM forskolin with or DMSO for 48 hours. Apoptosis assay was performed by PI and Annexin-V staining and analyzed by flow cytometry. Columns: mean, bars: SD (n=3). *p<0.05, compared with DMSO treated cells.
FIG. 6 illustrates PI3-kinase signaling contributes to MEC cell growth. A. Effects of PI3-kinase inhibitor LY-294002 or Compound A on MEC cell growth. […] The same blot was stripped and probed with anti-AKT or anti-V.-actin antibody. Image was cropped and auto-leveled by Photoshop. A representative of three independent experiments. (Right) MEC cell growth was measured by MTS assay on day 5 of LY-294002 or Compound A treatment. Points: mean, bars: SD (n=3). B. Effects of knock-down of PI3-kinase α or β on MEC cell growth. […] H3118 cell lysates were prepared on day 5 post-transduction. Image was cropped and auto-leveled by Photoshop. (Lower) Effects of knock-down of PI3-kinase α or β on MEC cell growth. 1×10^5 cells were transduced twice with lenti-viruses harboring shRNAs targeting PI3-K α, β or scramble control. Cell numbers were counted by trypan blue exclusion on day 5 posttransduction. Cell growth of scramble control virus infected cells was set to 100%, Columns: mean, bars: SD (n=3). **p<0.01, ***p<0.001 compared to control cells. C. Effects of Compound A in combination of rolipram plus forskolin on of MEC cell growth. 1×10^5 cells were treated with the combination of inhibitors listed. Cell numbers were counted by trypan blue exclusion on day 5, Columns: mean, bars: SD (n=3).
(§2) The Methods were described previously (Chen et al. Genes Cancer, 1:822-835 (2010)). Cell growth: 1-2×10^5 cells were infected with lenti-virus harboring specific shRNAs. On day 5 post infection, cells were counted by trypan blue exclusion. MTS proliferation assay (Promega, Madison, Wis.): 1-2×10^3 cells were treated with LY-294002, Compound A or DMSO in the concentration as indicated in FIG. 6A. MTS activities were measured on day 5. Cell cycle analysis: 1×10^5 cells were treated with inhibitors or infected with viruses. DNA amount was measured by flow cytometry analysis (BD FACScans). Apoptosis assay: 1×10^5 cells were treated with inhibitors or infected with virus. Cell viability was measured using the Annexin-V-FLUOS Staining Kit (Roche Diagnostics, Indianapolis, Ind.) by flow cytometry analysis (BD FACScans).

H292 cells = assay: Cell growth, cell count by trypan blue exclusion; details: PDE4B knock-down, day 5 post-transduction, compared to scramble control
Procedure: (§3) FIG. 3 illustrates knock-down of PDE4B inhibits fusion positive MEC cell growth, causes cell cycle arrest and induces apoptosis. A. H3118 cell lysate was prepared on day 5 post-transduction and subjected to western blot analysis. Image was cropped and auto-leveled by Photoshop. A representative of three independent experiments. B. 1×10^5 MEC cells were infected twice by shRNA No. 1 and No. 2 and cell number was count on day 5 post-transduction by trypan blue exclusion. Columns: mean, bars: SD (n>3). *p<0.05, **p<0.01, compared with scramble control virus infected cell growth. C. 1×10^5 cells were infected twice by shRNA No. 2. Cell cycle was determined by PI staining followed by FACS analysis on day 5 post-transduction, n=3. D. 1×10^5 cells were infected twice by shRNA No. 2. Apoptosis assay was performed by PI and Annexin-V staining and analyzed by flow cytometry on day 5 post-transduction, Columns: mean, bars: SD (n=3). *p<0.05, compared with control cells.
as §2

H3118 cells [3] = assay: Cell growth, cell count by trypan blue exclusion; details: PDE4B knock-down, day 5 post-transduction, compared to scramble control
Procedure: as §3, §2

HSY cells = assay: Cell growth, cell count by trypan blue exclusion
Procedure: as §1, §3, §2

PDE4B = PDE4B expression in cells (qPCR); details: vs shLUC
Procedure: FIG. 1 illustrates identification of CRTC1-MAML2 Target genes. […] RT-qPCR experiments were performed in triplicates. Columns: mean, bars: SD (n=3). *p<0.05, compared with expression from shLUC infected cells (Student t test). B Inhibition of CRTC1-MAML2 inhibited H3118 and H292 cell growth. Columns: mean, bars: SD (n=3). *p<0.05, **p<0.01, ***p<0.001, compared with shLUC. […] Columns: mean, bars: SD (n=3). […] Image was cropped and auto-leveled by Photoshop. A representative of three independent experiments.
Total RNA was isolated by the Trizol method (Invitrogen). qPCR was performed using ABI PRISM 7500 sequence detector (Applied Biosystems, Foster City, Calif.) by SYBR method (Applied Biosystems). The SYBR method uses SYBR Green I dye, which is a highly specific, double-stranded DNA binding dye, to detect PCR product as it accumulates during PCR cycles. All samples were amplified in triplicates. The relative change of transcript amount was normalized with the GAPDH mRNA expression levels (20).

H3118 cells [4] = assay: Microarray gene expression after CRTC1-MAML2 knock-down
Procedure: H3118 or HSY cells were transduced twice with retro-virus harboring shLUC or sh#D. GFP-positive cells were sorted 48 hours post-transduction. Total RNA was extracted using Trizol reagents (Invitrogen) and purified by RNAeasy Mini Column (QIAGEN). Hybridization with Affymetrix U133A plus—2 microarray chips was performed and analyzed at Dana-Farber Cancer Institute Microarray Core. The d-Chip analysis software was used for the analysis; Li, C. and Wong, W. H. Proc. Natl. Acad. Sci. USA […]. Genes with three fold expression changes in H3118 cells were considered significant (n=3, p<=0.05).

[5] = retroviral shRNA, fusion-positive H292 and H3118 cells, compared to shLUC
[6] = retroviral shRNA, fusion-negative HSY cells, compared to shLUC

Compound: Cn1c(=O)n(-c2ccc(C(C)(C)C#N)cc2)c2c3cc(-c4cnc5ccccc5c4)ccc3ncc21 [Compound A, 2-methyl-2-[4-(3-methyl-2-oxo-8-quinolin-3-yl-2,3-dihydroimidazo[4,5-c]quinolin-1-yl)-phenyl]propionitrile]
- pIC50 (H292 and H3118 cells [1]): 7.70 to 8.22
- effect on MEC cell growth when combined with rolipram and forskolin (H292 and H3118 cells [2]; MEC cells, cell count by trypan blue exclusion on day 5): additive effect

Compound: O=c1cc(N2CCOCC2)oc2c(-c3ccccc3)cccc12 [LY-294002]
- pIC50 (H292 and H3118 cells [1]): 5.00 to 5.40

Compound: COc1ccc(C2CNC(=O)C2)cc1OC1CCCC1 (centres unmarked) [rolipram, 4-(3-cyclopentyloxy-4-methoxyphenyl)pyrrolidin-2-one]
- cell growth (in words) (H292 and H3118 cells [2]; inhibitor treatment, MEC cells): not changed

Compound: shRNA #1: shRNA lenti-viral construct targeting PDE4B, SEQ ID NO 1 (CCGGGCTTGAGTAAATCCTACAGTTCTCGAGAACTGTAGGATTTACTCAAGCTTTTTG)
- growth inhibition (H292 cells): 74%
- growth inhibition (H3118 cells [3]): 83%
- cell growth (in words) (HSY cells; HSY cells, PDE4B knock-down): slight growth reduction

Compound: shRNA #A: small hairpin RNA targeting the MAML2 moiety of CRTC1-MAML2, GTAATCAACCTAACACATA, SEQ ID NO 3
- cell growth (in words) (H292 and H3118 cells [2]; [5]): significantly inhibited cell growth
- cell growth (in words) (HSY cells; [6]): no significant effect
- PDE4B expression (in words) (PDE4B; H3118 and H292 cells): significantly inhibited PDE4B expression
- PDE4B expression (in words) (PDE4B; fusion negative HSY cells): not

Compound: shRNA #D: small hairpin RNA targeting the MAML2 moiety of CRTC1-MAML2, GACAGAGCCTGGTAATGAT, SEQ ID NO 4
- cell growth (in words) (H292 and H3118 cells [2]; [5]): significantly inhibited cell growth
- cell growth (in words) (HSY cells; [6]): no significant effect
- PDE4B expression (in words) (PDE4B; H3118 and H292 cells): significantly inhibited PDE4B expression
- PDE4B expression (in words) (PDE4B; fusion negative HSY cells): not
- PDE4B expression, down-regulation (H3118 cells [4]; CRTC1-MAML2 depletion): 17 fold
- HES2 expression, up-regulation (H3118 cells [4]; CRTC1-MAML2 knock-down vs luciferase knock-down): 7 fold
